Measurements published in patent US20260191968A1, “PROTAC DEGRADERS OF MLLT1 AND/OR MLLT3” (DARK BLUE THERAPEUTICS LTD, priority 2024, published 2026).

What was measured:
[1] = molecular target: T1, MLLT1 (Homo sapiens, UniProt Q03111); test: MLLT1 degradation assay in MV4-11 cells (JESS chemiluminescent detection), three concentrations, 24 h; format: cell-based; details: with respect to DMSO control
T1 construct: host or cells: MV4-11
T1 sequence (Q03111 1-559): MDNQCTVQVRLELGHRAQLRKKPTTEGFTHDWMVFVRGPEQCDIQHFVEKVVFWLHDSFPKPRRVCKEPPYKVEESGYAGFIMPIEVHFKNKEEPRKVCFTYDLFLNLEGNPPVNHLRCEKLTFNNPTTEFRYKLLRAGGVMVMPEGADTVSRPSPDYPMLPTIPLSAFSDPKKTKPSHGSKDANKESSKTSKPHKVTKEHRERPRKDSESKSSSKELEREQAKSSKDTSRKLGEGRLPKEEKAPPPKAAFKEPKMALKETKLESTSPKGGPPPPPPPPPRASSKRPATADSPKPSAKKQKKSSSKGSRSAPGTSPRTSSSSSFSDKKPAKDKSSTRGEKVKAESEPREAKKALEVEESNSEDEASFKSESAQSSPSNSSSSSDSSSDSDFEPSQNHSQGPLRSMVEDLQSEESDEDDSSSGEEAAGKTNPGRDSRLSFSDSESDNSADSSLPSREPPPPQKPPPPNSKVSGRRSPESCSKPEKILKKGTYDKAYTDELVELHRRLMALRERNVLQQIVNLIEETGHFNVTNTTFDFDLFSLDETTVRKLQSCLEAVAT
How it was run: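 Read-out is % MLLT1 degradation versus DMSO, from band peak areas on a JESS chemiluminescent system. Cells (MV4-11) were exposed for 24 h at 37° C to three compound levels, 10, 100 and 1000 nM, in 0.1% DMSO.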

[2] = system: MV4-11 cells; test: MV4-11 cellular proliferative assay, Assay Format B (CTG 2.0, 168 h); format: cell-based; details: Homo sapiens, 168 h (7 days), CTG 2.0, read-out: IC50 (MV4-11 cellular proliferative assay, Assay format B)
How it was run: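 Viability read by CellTiter-Glo 2.0 luminescence after 7-day (168 h) compound exposure of MV4-11 cells in IMDM/10% FBS. Ten 3-fold concentrations starting at 1 uM or 100 nM, 0.3% final DMSO; curves normalised to DMSO control, four-parameter fit.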

Row | MLLT1% Degradation @ 0.01 μM [1] | MLLT1% Degradation @ 0.1 μM [1] | MLLT1% Degradation @ 1 μM [1] | IC50 [2] | SMILES
1 | A (Category A: A ≥ 75% degradation) | A (Category A: A ≥ 75% degradation) | A (Category A: A ≥ 75% degradation) | ≤ 100 nM | CN1CCC[C@@H]1c1cc2cnc(NC(=O)c3ccc(OCCN4CCN(c5cccc6c5CN(C5CCC(=O)NC5=O)C6=O)CC4)cc3)cc2[nH]1 (stereo partly drawn) [Example 142, 4-(2-(4-(2-(2,6-dioxopiperidin-3-yl)-1-oxoisoindolin-4-yl)piperazin-1-yl)ethoxy)-N-(2-((R)-1-methylpyrrolidin-2-yl)-1H-pyrrolo[3,2-c]pyridin-6-yl)benzamide]
2 | A (Category A: A ≥ 75% degradation) | A (Category A: A ≥ 75% degradation) | A (Category A: A ≥ 75% degradation) | ≤ 100 nM | CN1CCC[C@@H]1c1cc2cnc(NC(=O)c3ccc(CCCC4CCN(c5cccc6c5CN(C5CCC(=O)NC5=O)C6=O)CC4)cc3)cc2[nH]1 (stereo in doubt) [Example 77, 4-(3-(1-(2-((rel-S)-2,6-dioxopiperidin-3-yl)-1-oxoisoindolin-4-yl)piperidin-4-yl)propyl)-N-(2-((R)-1-methylpyrrolidin-2-yl)-1H-pyrrolo[3,2-c]pyridin-6-yl)benzamide]
3 | A (Category A: A ≥ 75% degradation) | A (Category A: A ≥ 75% degradation) | A (Category A: A ≥ 75% degradation) | ≤ 100 nM | CN1CCC[C@@H]1c1cc2cnc(NC(=O)c3ccc(OC4CCN(CC5CCN(c6ccc7c(c6)CN(C6CCC(=O)NC6=O)C7=O)CC5)CC4)cc3)cc2[nH]1 (stereo partly drawn) [Example 143, 4-((1-((1-(2-(2,6-dioxopiperidin-3-yl)-1-oxoisoindolin-5-yl)piperidin-4-yl)methyl)piperidin-4-yl)oxy)-N-(2-((R)-1-methylpyrrolidin-2-yl)-1H-pyrrolo[3,2-c]pyridin-6-yl)benzamide]
4 | A (Category A: A ≥ 75% degradation) | A (Category A: A ≥ 75% degradation) | A (Category A: A ≥ 75% degradation) | ≤ 100 nM | CN1CCC[C@@H]1c1cc2cnc(NC(=O)c3ccc(CCCC#Cc4cccc5c4CN([C@@H]4CCC(=O)NC4=O)C5=O)cc3)cc2[nH]1 (relative stereo) [Example 103, 4-(5-(2-((rel-R)-2,6-dioxopiperidin-3-yl)-1-oxoisoindolin-4-yl)pent-4-yn-1-yl)-N-(2-((R)-1-methylpyrrolidin-2-yl)-1H-pyrrolo[3,2-c]pyridin-6-yl)benzamide]
5 | A (Category A: A ≥ 75% degradation) | A (Category A: A ≥ 75% degradation) | A (Category A: A ≥ 75% degradation) | ≤ 100 nM | CN1CCC[C@@H]1c1cc2cnc(NC(=O)c3ccc(CCCC#Cc4cc(F)cc5c4CN(C4CCC(=O)NC4=O)C5=O)cc3)cc2[nH]1 (stereo partly drawn) [Example 101, 4-(5-(2-(2,6-dioxopiperidin-3-yl)-6-fluoro-1-oxoisoindolin-4-yl)pent-4-yn-1-yl)-N-(2-((R)-1-methylpyrrolidin-2-yl)-1H-pyrrolo[3,2-c]pyridin-6-yl)benzamide]
6 | A (Category A: A ≥ 75% degradation) | A (Category A: A ≥ 75% degradation) | A (Category A: A ≥ 75% degradation) | ≤ 100 nM | CN1CCC[C@@H]1c1cc2cnc(NC(=O)c3ccc(OCCC4CCN(c5cccc6c5CN(C5CCC(=O)NC5=O)C6=O)CC4)cc3F)cc2[nH]1 (mixture of isomers) [Example 171, 4-(2-(1-(2-(2,6-dioxopiperidin-3-yl)-1-oxoisoindolin-4-yl)piperidin-4-yl)ethoxy)-2-fluoro-N-(2-((R)-1-methylpyrrolidin-2-yl)-1H-pyrrolo[3,2-c]pyridin-6-yl)benzamide]
7 | A (Category A: A ≥ 75% degradation) | A (Category A: A ≥ 75% degradation) | A (Category A: A ≥ 75% degradation) | ≤ 100 nM | CN1CCC[C@@H]1c1[nH]c2cc(NC(=O)c3ccc(CCCC#Cc4cccc5c4CN(C4CCC(=O)NC4=O)C5=O)cc3)ncc2c1Cl (stereo partly drawn) [Example 100, N-(3-chloro-2-((R)-1-methylpyrrolidin-2-yl)-1H-pyrrolo[3,2-c]pyridin-6-yl)-4-(5-(2-(2,6-dioxopiperidin-3-yl)-1-oxoisoindolin-4-yl)pent-4-yn-1-yl)benzamide]
8 | A (Category A: A ≥ 75% degradation) | A (Category A: A ≥ 75% degradation) | A (Category A: A ≥ 75% degradation) | ≤ 100 nM | CN1CCC[C@@H]1c1cc2cnc(NC(=O)c3ccc(OCC#Cc4cccc5c4CN(C4CCC(=O)NC4=O)C5=O)nc3)cc2[nH]1 (stereo partly drawn) [Example 2, 6-((3-(2-(2,6-dioxopiperidin-3-yl)-1-oxoisoindolin-4-yl)prop-2-yn-1-yl)oxy)-N-(2-((R)-1-methylpyrrolidin-2-yl)-1H-pyrrolo[3,2-c]pyridin-6-yl)nicotinamide]
9 | A (Category A: A ≥ 75% degradation) | A (Category A: A ≥ 75% degradation) | A (Category A: A ≥ 75% degradation) | ≤ 100 nM | CN1CCC[C@@H]1c1cc2cnc(NC(=O)c3ccc(N4CCC(CN5CCN(c6cccc7c6CN(C6CCC(=O)NC6=O)C7=O)CC5)CC4)nc3)cc2[nH]1 (stereo partly drawn) [Example 168, 6-(4-((4-(2-(2,6-dioxopiperidin-3-yl)-1-oxoisoindolin-4-yl)piperazin-1-yl)methyl)piperidin-1-yl)-N-(2-((R)-1-methylpyrrolidin-2-yl)-1H-pyrrolo[3,2-c]pyridin-6-yl)nicotinamide]
10 | A (Category A: A ≥ 75% degradation) | A (Category A: A ≥ 75% degradation) | A (Category A: A ≥ 75% degradation) | ≤ 100 nM | CN1CCC[C@@H]1c1cc2cnc(NC(=O)c3ccc(N4CCC(OC5CCN(c6cccc7c6CN(C6CCC(=O)NC6=O)C7=O)CC5)CC4)cc3)cc2[nH]1 (stereo partly drawn) [Example 137, 4-(4-((1-(2-(2,6-dioxopiperidin-3-yl)-1-oxoisoindolin-4-yl)piperidin-4-yl)oxy)piperidin-1-yl)-N-(2-((R)-1-methylpyrrolidin-2-yl)-1H-pyrrolo[3,2-c]pyridin-6-yl)benzamide]
11 | A (Category A: A ≥ 75% degradation) | A (Category A: A ≥ 75% degradation) | A (Category A: A ≥ 75% degradation) | ≤ 100 nM | CN1CCC[C@@H]1c1cc2cnc(NC(=O)c3cc(F)c(OCCC4CCN(c5cccc6c5CN(C5CCC(=O)NC5=O)C6=O)CC4)cc3F)cc2[nH]1 (stereo partly drawn) [Example 230, 4-(2-(1-(2-(2,6-dioxopiperidin-3-yl)-1-oxoisoindolin-4-yl)piperidin-4-yl)ethoxy)-2,5-difluoro-N-(2-((R)-1-methylpyrrolidin-2-yl)-1H-pyrrolo[3,2-c]pyridin-6-yl)benzamide]
12 | A (Category A: A ≥ 75% degradation) | A (Category A: A ≥ 75% degradation) | A (Category A: A ≥ 75% degradation) | ≤ 100 nM | CN1CCC[C@@H]1c1cc2cnc(NC(=O)c3ccc(OCCC4CCN(c5cccc6c5CN(C5CCC(=O)NC5=O)C6=O)CC4)cn3)cc2[nH]1 (stereo partly drawn) [Example 216, 5-(2-(1-(2-(2,6-dioxopiperidin-3-yl)-1-oxoisoindolin-4-yl)piperidin-4-yl)ethoxy)-N-(2-((R)-1-methylpyrrolidin-2-yl)-1H-pyrrolo[3,2-c]pyridin-6-yl)picolinamide]

Row | SMILES | MLLT1% Degradation @ 0.01 μM [1] | MLLT1% Degradation @ 0.1 μM [1] | MLLT1% Degradation @ 1 μM [1] | IC50 [2]
13 | CN1CCC[C@@H]1c1cc2cnc(NC(=O)c3ccc(CCCC#Cc4cccc5c4CN(C4CCC(=O)NC4=O)C5=O)nc3)cc2[nH]1 (stereo partly drawn) [Example 12, 6-(5-(2-(2,6-dioxopiperidin-3-yl)-1-oxoisoindolin-4-yl)pent-4-yn-1-yl)-N-(2-((R)-1-methylpyrrolidin-2-yl)-1H-pyrrolo[3,2-c]pyridin-6-yl)nicotinamide] | B (Category B: 50% ≤ B < 75% degradation) | A (Category A: A ≥ 75% degradation) | A (Category A: A ≥ 75% degradation) | ≤ 100 nM
14 | CN1CCC[C@@H]1c1cc2cnc(NC(=O)c3ccc(N4CCC(OCc5ccc(-c6cccc7c6CN(C6CCC(=O)NC6=O)C7=O)cc5)CC4)nc3)cc2[nH]1 (stereo partly drawn) [Example 109, 6-(4-((4-(2-(2,6-dioxopiperidin-3-yl)-1-oxoisoindolin-4-yl)benzyl)oxy)piperidin-1-yl)-N-(2-((R)-1-methylpyrrolidin-2-yl)-1H-pyrrolo[3,2-c]pyridin-6-yl)nicotinamide] | B (Category B: 50% ≤ B < 75% degradation) | A (Category A: A ≥ 75% degradation) | A (Category A: A ≥ 75% degradation) | ≤ 100 nM
